Experiments:
Axl (h) = biological target: T1, Axl (h) (Homo sapiens, UniProt P30530); experiment: Enzymatic activity test, Axl (h); format: biochemical; details: 10 μM [γ-33P]-ATP, 40 minutes, room temperature
T1 construct: purchased
T1 sequence (P30530 26-894): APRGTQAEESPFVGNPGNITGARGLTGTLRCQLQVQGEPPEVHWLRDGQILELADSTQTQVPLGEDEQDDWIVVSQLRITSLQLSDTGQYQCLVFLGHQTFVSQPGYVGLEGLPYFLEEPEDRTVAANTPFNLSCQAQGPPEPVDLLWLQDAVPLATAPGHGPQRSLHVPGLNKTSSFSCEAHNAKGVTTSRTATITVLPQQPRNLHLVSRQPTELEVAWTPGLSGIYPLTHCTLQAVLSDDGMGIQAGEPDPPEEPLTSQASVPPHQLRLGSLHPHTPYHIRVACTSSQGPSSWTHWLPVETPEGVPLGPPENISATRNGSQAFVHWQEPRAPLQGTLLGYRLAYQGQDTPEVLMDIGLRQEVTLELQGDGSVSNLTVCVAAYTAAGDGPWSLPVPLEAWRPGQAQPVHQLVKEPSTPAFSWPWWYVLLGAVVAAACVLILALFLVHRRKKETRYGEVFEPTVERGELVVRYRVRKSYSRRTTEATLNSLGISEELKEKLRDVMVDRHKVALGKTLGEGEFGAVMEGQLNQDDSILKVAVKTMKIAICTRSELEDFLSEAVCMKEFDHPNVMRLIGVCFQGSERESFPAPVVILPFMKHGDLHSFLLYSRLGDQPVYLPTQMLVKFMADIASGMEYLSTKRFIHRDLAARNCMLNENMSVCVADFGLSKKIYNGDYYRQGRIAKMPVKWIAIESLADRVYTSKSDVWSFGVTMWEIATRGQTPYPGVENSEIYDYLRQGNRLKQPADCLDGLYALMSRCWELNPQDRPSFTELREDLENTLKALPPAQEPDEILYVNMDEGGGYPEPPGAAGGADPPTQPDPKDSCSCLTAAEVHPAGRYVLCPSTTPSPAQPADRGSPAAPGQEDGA
Procedure: Assay 3: Enzymatic Activity Test of the Compounds of the Present Invention
(§1) Test substances: the compounds of the present invention, wherein the structures and preparations thereof were as described above.
(1) Preparation of the Compound Stock Solution
The compound was dissolved in 100% DMSO to prepare a stock solution with a maximum concentration of 500 μM.
(2) Preparation of the Compound Working Solution
The compound stock solution was diluted to final concentrations of 500, 150, 50, 15, 5, 1.5, 0.5, 0.15 and 0.05 μM to become the compound working solutions (50×).
(3) Preparation of Different Enzyme Reaction Solutions
The Axl (h) enzyme was dissolved in 8 mM MOPS (pH 7.0), 0.2 mM EDTA, and 250 μM KKSRGDYMTMQIG to prepare an enzyme solution having a final concentration of 1.7 nM. The enzymatic reaction was activated by using 10 mM magnesium acetate and 10 μM [γ-^33P]-ATP to form an Mg/ATP mixed solution.
In a 384-well plate, the compound working solution was added to final concentrations of 10000, 3000, 1000, 300, 100, 30, 10, 3, and 1 nM. Then different enzyme reaction solutions prepared according to the above conditions were added. The incubation was carried out for 40 minutes at room temperature. The test was terminated by the addition of a 0.5% phosphoric acid solution. 10 μL of the reaction solution was taken and dropped to the P30 filter paper. The filter paper was washed 4 times with 0.425% phosphoric acid solution and once with methanol, and then placed on a scintillation counter. The […] IC50 values were calculated using GraphPad 5.0 software.

[1] = Stability in liver microsome of mice; format: in vitro ADME; details: liver microsomes; Mouse liver microsome 0.5 mg protein/mL, compound 1 μM, 37° C.
Procedure: Assay 1: Stability assessment of the compounds of the present invention in liver microsome of mice and dogs
as §1
The composition of the incubation system:
Preparation of Test Substances:
An appropriate amount of the compound was accurately weighed and dissolved in DMSO to prepare a 5.0 mM stock solution. The 5.0 mM stock solution was diluted to 1.0 mM with DMSO, and finally diluted with water to a 10 μM test substance working solution for use (the DMSO content in the reaction system was 0.1%).
(1) The liver microsome (20 mg protein/mL) was taken out from the −80° C. refrigerator, pre-incubated at 37° C. with a water-bathing constant temperature vibrator for 3 minutes, and melted for use.
(2) A mixed solution of the incubation system (excluding compounds and β-NADPH) according to the above “composition of the incubation system” for the assay was prepared, and pre-incubated at 37° C. with a water-bathing constant temperature vibrator for 2 minutes.
(3) Control group (excluding β-NADPH): 30 μL of water and 30 μL of compound working solution (10 μM) were added to 240 μL of the mixed solution of the incubation system of step (2), and vortexed for 30 seconds to mix well. The total reaction volume was 300 μL. A duplicate sample was prepared. The sample was incubated at 37° C. with a water-bathing constant temperature vibrator. The timekeeping began and the sampling time points were set at 0 minute and 60 minutes.
(4) Sample group: 70 μL of β-NADPH solution (10 mM) and 70 μL of compound working solution (10 μM) were added to 560 μL of the mixed solution of step (2). The total reaction volume was 700 μL. The resulting mixture was vortexed for 30 seconds to mix well. A duplicate sample was prepared. The sample was incubated at 37° C. with a water-bathing constant temperature vibrator. The timekeeping began and the sampling time points were set at 0 minute, 5 minutes, 10 minutes, 20 minutes, 30 minutes, and 60 minutes after timekeeping.
(5) After vortexing for 3 minutes, the sample was centrifuged at 4000 rpm for 10 minutes.
(6) 50 μL of the supernatant was taken and 150 μL of water was added. The resulting mixture was vortexed to mix well, and analyzed by LC/MS/MS.
The half-life (t1/2) and clearance rate (Cl) were calculated using the following first-order kinetic formula:
Vd=1/protein content in liver microsome
Note: k was the slope of the logarithm of the remaining amount of the compound versus time, and Vd was the apparent distribution volume.

IC50 (Axl (h))	half-life at 1 μM [1]	microsomal CLint at 1 μM [1]	SMILES
5 nM	4.62 h	5 µL/min/mg	COc1cc2nccc(Oc3ncc(NC(=O)c4nn(C(C)C)cc(-c5ccc(F)cc5)c4=O)cn3)c2cc1OC [Compound 34, N-(2-((6,7-dimethoxyquinolin-4-yl)oxy)pyrimidine-5-yl)-5-para-fluorophenyl-1-isopropyl-4-oxo-1,4-dihydropyridazine-3-carboxamide]
3 nM	5.02 h	4.6 µL/min/mg	COc1cc2nccc(Oc3ccc(NC(=O)c4nn(C5CC5)cc(-c5ccc(F)cc5)c4=O)cn3)c2cc1OC [Compound 36]
2 nM	8.88 h	2.6 µL/min/mg	COc1cc2nccc(Oc3ncc(NC(=O)c4nn(C5CC5)cc(-c5ccc(F)cc5)c4=O)cn3)c2cc1OC [Compound 37, 1-cyclopropyl-N-(2-((6,7-dimethoxyquinolin-4-yl)oxy)pyrimidine-5-yl)-5-para-fluorophenyl-4-oxo-1,4-dihydropyridazine-3-carboxamide]
4 nM	57.8 h	4 µL/min/mg	COc1cc2nccc(Oc3cnc(NC(=O)c4cn(C(C)C)nc(-c5ccc(F)cc5)c4=O)nc3)c2cc1OC [Compound 39, N-(5-((6,7-dimethoxyquinolin-4-yl)oxy)pyrimidine-2-yl)-6-(4-fluorophenyl)-2-isopropyl-5-oxo-2,5-dihydropyridazine-4-carboxamide]
4 nM	8.88 h	2.6 µL/min/mg	COc1cc2nccc(Oc3ncc(NC(=O)c4cn(C(C)C)nc(-c5ccc(F)cc5)c4=O)cn3)c2cc1OC [Compound 40, N-(2-((6,7-dimethoxyquinolin-4-yl)oxy)pyrimidine-5-yl)-6-(4-fluorophenyl)-2-isopropyl-5-oxo-2,5-dihydropyridazine-4-carboxamide]
